# Assay results reported in article PMC3834177 (Cancer Chemotherapy and Pharmacology, 2013).
# Marks after values point to notes of the source that are not given here.
# Tests used:
# [1] = Midazolam PK when administered with midostaurin; conditions: for change in AUCinf: day 3 (co-administration of midostaurin) vs day 1; for AUC0–inf, adjusted geometric mean / AUC0–last, adjusted geometric mean / C max, adjusted geometric mean / t max, median / AUC(0-inf) / AUC(0-t) / Cmax: n = 18; for AUC(0-inf): AUC0–inf; for AUC(0-inf) / AUC(0-t) / Cmax: adjusted geometric mean; for AUC(0-t): AUC0–last; for Cmax: C max
# From the text: (§1) Both inhibition and induction of midazolam clearance were investigated.
# Similarly, blood and urine samples were taken on days 1, 3, 6, 7, 8, and 9 to measure the levels of 4β-hydroxycholesterol in plasma and the 6β-hydroxycortisol/cortisol ratio in urine, markers of CYP3A4 activity.
# The PK parameters of midazolam and its metabolites (C max, t max, AUC0–last, AUCinf, and t 1/2) were derived using a noncompartmental method with the aid of WinNonLin 5.2. […] Following log transformation, the primary PK parameters were analyzed using a linear, mixed-effects model using the term of treatment as a fixed factor (reference, test 1, test 2) and subject as a random factor. A point estimate and the corresponding 90 % CI for the difference in test 1 versus reference and the difference in test 2 versus reference were derived from the respective contrasts of the model estimates and anti-logged to obtain the GMR and respective 90 % CI.
# The concentration of ketoconazole in plasma was assessed using a validated LC–MS/MS assay with an LLOQ of 50.0 ng/mL (WuXi Pharmatech Co, Ltd, China). The concentration of rifampicin in plasma was measured using a validated LC–MS/MS assay with an LLOQ of 5.0 ng/mL (SGS, Cephac Europe, SAS). Plasma concentrations of midazolam and its metabolite 1′-hydroxymidazolam, which is generated by CYP3A4 and CYP3A5 in humans, were measured using a validated LC–MS/MS assay with an LLOQ of ≈0.100 ng/mL (SGS, Cephac Europe, SAS). The plasma concentration of 4β-hydroxycholesterol was measured using a validated LC–MS/MS assay with an LLOQ of 3.0 ng/mL (SGS, Cephac Europe, SAS). The concentrations of 6β-hydroxycortisol and cortisol in urine were determined using validated LC–MS/MS assays with an LLOQ of 10.0 ng/mL for 6β-hydroxycortisol and 1.0 ng/mL for cortisol. The ratio of 6β-hydroxycortisol to cortisol was subsequently calculated (SGS, Cephac Europe, SAS). See Supplementary Table 2 for detailed bioanalytical methods for all 3 studies.
# [2] = Safety and tolerability, midazolam study
# From the text: as §1
# [3] = day 3 (co-administration of midostaurin) vs midazolam alone day 1
# [4] = day 8 (after repeated doses of midostaurin) vs day 1
# [5] = plasma, Midazolam + midostaurin (day 3)
# [6] = midazolam study: MZ 4 mg (day 1), MZ 4 mg + Mido 100 mg (day 3), Mido 50 mg twice daily (days 4–6)
# [7] = midazolam study: second MZ 4 mg alone (day 8, after Mido)
# [8] = human, plasma, oral, 4 mg, plasma, Midazolam (day 1)
# [9] = human, plasma, oral, 4 mg, plasma, Midazolam (day 8)
# [10] = human, plasma, oral, plasma, Midazolam + midostaurin (day 3)
smiles,measurement,setting,value
OCc1ncc2n1-c1ccc(Cl)cc1C(c1ccccc1F)=NC2 [1′-Hydroxymidazolam],change in AUCinf,[1],No change
same,average decrease in C max,[1]; [3],1.2 fold
same,"t max, Hodges–Lehmann estimate of median difference (90 % distribution-free CI)",[1]; day 3/day 1 comparison,0.13 (−0.50 to 1.50)^b h
same,average decrease in AUCinf,[1]; [4],1.3 fold
same,average decrease in C max,[1]; [4],1.3 fold
same,"t max, Hodges–Lehmann estimate of median difference (90 % distribution-free CI)",[1]; day 8/day 1 comparison,0.01 (−0.23 to 0.26)^c h
same,"AUC0–inf, adjusted geometric mean","[1]; plasma, Midazolam (day 1), midazolam 4 mg alone",18.18 ng·h/mL
same,"AUC0–last, adjusted geometric mean","[1]; plasma, Midazolam (day 1)",15.91 ng·h/mL
same,"C max, adjusted geometric mean","[1]; plasma, Midazolam (day 1)",5.83 ng/mL
same,"t max, median","[1]; plasma, Midazolam (day 1)",30 min
same,"AUC0–inf, adjusted geometric mean","[1]; plasma, Midazolam (day 8), midazolam 4 mg alone after repeated midostaurin",13.74 ng·h/mL
same,"AUC0–last, adjusted geometric mean","[1]; plasma, Midazolam (day 8)",12.57 ng·h/mL
same,"C max, adjusted geometric mean","[1]; plasma, Midazolam (day 8)",4.37 ng/mL
same,"t max, median","[1]; plasma, Midazolam (day 8)",30 min
same,"AUC0–inf, adjusted geometric mean","[1]; plasma, Midazolam + midostaurin (day 3), midazolam 4 mg + midostaurin 100 mg",18.54 ng·h/mL
same,"AUC0–last, adjusted geometric mean",[1]; [5],15.87 ng·h/mL
same,"C max, adjusted geometric mean",[1]; [5],4.76 ng/mL
Cc1ncc2n1-c1ccc(Cl)cc1C(c1ccccc1F)=NC2 [Midazolam],Adverse event: Abdominal distension,[2]; [6],0 n (%)
same,Adverse event: Any preferred term,[2]; [6],3 (15.0) n (%)
same,Adverse event: Back pain,[2]; [6],0 n (%)
same,Adverse event: Chromaturia,[2]; [6],0 n (%)
same,Adverse event: Cough,[2]; [6],0 n (%)
same,Adverse event: Diarrhea,[2]; [6],0 n (%)
same,Adverse event: Discolored feces,[2]; [6],0 n (%)
same,Adverse event: Dizziness,[2]; [6],0 n (%)
same,Adverse event: Dry skin,[2]; [6],0 n (%)
same,Adverse event: Dyspepsia,[2]; [6],0 n (%)
same,Adverse event: Feeling cold,[2]; [6],0 n (%)
same,Adverse event: Feeling hot,[2]; [6],0 n (%)
same,Adverse event: Flatulence,[2]; [6],0 n (%)
same,Adverse event: Headache,[2]; [6],2 (10.0) n (%)
same,Adverse event: Hot flush,[2]; [6],0 n (%)
same,Adverse event: Nasopharyngitis,[2]; [6],0 n (%)
same,Adverse event: Nausea,[2]; [6],0 n (%)
same,Adverse event: Palpitations,[2]; [6],0 n (%)
same,Adverse event: Pharyngolaryngeal pain,[2]; [6],0 n (%)
same,Adverse event: Restlessness,[2]; [6],0 n (%)
same,Adverse event: Rhinitis,[2]; [6],0 n (%)
same,Adverse event: Sleep disorder,[2]; [6],0 n (%)
same,Adverse event: Somnolence,[2]; [6],1 (5.0) n (%)
same,Adverse event: Vomiting,[2]; [6],0 n (%)
same,Adverse event: Abdominal distension,[2]; [7],0 n (%)
same,Adverse event: Any preferred term,[2]; [7],3 (16.7) n (%)
same,Adverse event: Back pain,[2]; [7],0 n (%)
same,Adverse event: Chromaturia,[2]; [7],0 n (%)
same,Adverse event: Cough,[2]; [7],0 n (%)
same,Adverse event: Diarrhea,[2]; [7],0 n (%)
same,Adverse event: Discolored feces,[2]; [7],0 n (%)
same,Adverse event: Dizziness,[2]; [7],0 n (%)
same,Adverse event: Dry skin,[2]; [7],0 n (%)
same,Adverse event: Dyspepsia,[2]; [7],0 n (%)
same,Adverse event: Feeling cold,[2]; [7],0 n (%)
same,Adverse event: Feeling hot,[2]; [7],0 n (%)
same,Adverse event: Flatulence,[2]; [7],0 n (%)
same,Adverse event: Headache,[2]; [7],2 (11.1) n (%)
same,Adverse event: Hot flush,[2]; [7],0 n (%)
same,Adverse event: Nasopharyngitis,[2]; [7],1 (5.6) n (%)
same,Adverse event: Nausea,[2]; [7],0 n (%)
same,Adverse event: Palpitations,[2]; [7],0 n (%)
same,Adverse event: Pharyngolaryngeal pain,[2]; [7],0 n (%)
same,Adverse event: Restlessness,[2]; [7],0 n (%)
same,Adverse event: Rhinitis,[2]; [7],0 n (%)
same,Adverse event: Sleep disorder,[2]; [7],0 n (%)
same,Adverse event: Somnolence,[2]; [7],0 n (%)
same,Adverse event: Vomiting,[2]; [7],0 n (%)
same,change in AUCinf,[1],No change
same,average decrease in C max,[1]; [3],1.2 fold
same,average decrease in AUCinf,[1]; [4],1.1 fold
same,average decrease in C max,[1]; [4],1.1 fold
same,"t max, Hodges–Lehmann estimate of median difference (90 % distribution-free CI)",[1]; day 8/day 1 comparison,0.12 (−0.12 to 0.26)^c h
same,Tmax,"[1]; human, plasma, oral, 4 mg",30 min
same,AUC(0-inf),"[1]; human, plasma, oral, 4 mg, plasma, Midazolam (day 1), midazolam 4 mg alone",49.7 ng·h/mL
same,AUC(0-inf),"[1]; human, plasma, oral, 4 mg, plasma, Midazolam (day 8), midazolam 4 mg alone after repeated midostaurin",47 ng·h/mL
same,AUC(0-t),[1]; [8],43.1 ng·h/mL
same,AUC(0-t),[1]; [9],40.8 ng·h/mL
same,Cmax,[1]; [8],13.5 ng/mL
same,Cmax,[1]; [9],12.2 ng/mL
same,AUC(0-inf),"[1]; human, plasma, oral, plasma, Midazolam + midostaurin (day 3), midazolam 4 mg + midostaurin 100 mg",49.6 ng·h/mL
same,AUC(0-t),[1]; [10],40.2 ng·h/mL
same,Cmax,[1]; [10],11 ng/mL
same,"t max, median","[1]; plasma, Midazolam (day 8)",30 min
